Laboratory results taken from paper PMC9851200, “Multiparameter phenotypic screening for endogenous TFEB and TFE3 translocation identifies novel chemical series modulating lysosome function” (Autophagy, 2022).

Columns and labels:
Type in all cases: binding
[1] = target: kinases (KINOMEscan panel) (Homo sapiens, UniProt Q9H4B4); conditions: kinase PLK3; NEW KINOMEscan
[2] = target: T1, kinases (KINOMEscan panel) (Homo sapiens, UniProt O15530); conditions: NEW KINOMEscan
T1 sequence (O15530 1-556): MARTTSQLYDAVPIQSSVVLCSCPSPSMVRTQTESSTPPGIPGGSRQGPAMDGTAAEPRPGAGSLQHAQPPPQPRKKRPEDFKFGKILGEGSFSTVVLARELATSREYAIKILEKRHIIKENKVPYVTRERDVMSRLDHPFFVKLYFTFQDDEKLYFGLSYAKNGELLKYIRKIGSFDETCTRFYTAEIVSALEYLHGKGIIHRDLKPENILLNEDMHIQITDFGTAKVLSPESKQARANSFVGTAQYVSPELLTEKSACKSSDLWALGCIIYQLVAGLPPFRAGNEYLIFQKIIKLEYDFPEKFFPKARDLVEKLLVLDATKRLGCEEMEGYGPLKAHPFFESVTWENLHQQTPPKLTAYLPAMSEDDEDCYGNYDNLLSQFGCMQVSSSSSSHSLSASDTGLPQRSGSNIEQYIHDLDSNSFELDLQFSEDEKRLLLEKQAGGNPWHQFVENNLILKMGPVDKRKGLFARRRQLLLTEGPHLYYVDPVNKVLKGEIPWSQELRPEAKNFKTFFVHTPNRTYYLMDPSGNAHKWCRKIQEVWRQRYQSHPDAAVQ

[3] = target: kinases (KINOMEscan panel) (Homo sapiens, UniProt Q2M2I8); conditions: AAK1; NEW KINOMEscan
Sequence of kinases (KINOMEscan panel) (Homo sapiens, UniProt Q2M2I8) (Q2M2I8 whole entry): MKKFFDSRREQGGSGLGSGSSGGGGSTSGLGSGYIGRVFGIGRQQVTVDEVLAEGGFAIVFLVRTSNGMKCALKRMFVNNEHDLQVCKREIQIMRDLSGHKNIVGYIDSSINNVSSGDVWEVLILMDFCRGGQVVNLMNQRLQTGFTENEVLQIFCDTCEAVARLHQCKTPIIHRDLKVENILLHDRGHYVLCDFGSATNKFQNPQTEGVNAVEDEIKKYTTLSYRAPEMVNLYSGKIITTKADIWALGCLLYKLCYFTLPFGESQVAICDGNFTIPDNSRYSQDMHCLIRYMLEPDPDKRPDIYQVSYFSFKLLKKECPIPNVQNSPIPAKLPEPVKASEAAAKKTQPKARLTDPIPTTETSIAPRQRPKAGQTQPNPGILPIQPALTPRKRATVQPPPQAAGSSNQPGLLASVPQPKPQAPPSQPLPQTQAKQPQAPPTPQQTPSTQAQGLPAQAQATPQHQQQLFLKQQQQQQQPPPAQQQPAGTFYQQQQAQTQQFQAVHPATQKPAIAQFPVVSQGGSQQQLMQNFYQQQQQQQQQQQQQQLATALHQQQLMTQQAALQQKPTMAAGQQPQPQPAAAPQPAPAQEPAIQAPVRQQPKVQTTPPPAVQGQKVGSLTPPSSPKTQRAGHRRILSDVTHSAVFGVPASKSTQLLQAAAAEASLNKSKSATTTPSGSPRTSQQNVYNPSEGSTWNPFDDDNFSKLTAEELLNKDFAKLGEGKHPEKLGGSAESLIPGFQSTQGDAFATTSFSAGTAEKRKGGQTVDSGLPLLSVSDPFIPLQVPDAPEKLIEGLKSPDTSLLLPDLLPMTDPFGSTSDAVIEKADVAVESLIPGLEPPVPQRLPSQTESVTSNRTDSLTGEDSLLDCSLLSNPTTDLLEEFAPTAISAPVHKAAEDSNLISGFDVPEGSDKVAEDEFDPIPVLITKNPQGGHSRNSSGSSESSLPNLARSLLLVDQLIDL

[4] = target: T2, kinases (KINOMEscan panel) (Homo sapiens, UniProt P52333); conditions: kinase JAK3(JH1domain-catalytic); NEW KINOMEscan
T2 sequence (P52333 1-1124): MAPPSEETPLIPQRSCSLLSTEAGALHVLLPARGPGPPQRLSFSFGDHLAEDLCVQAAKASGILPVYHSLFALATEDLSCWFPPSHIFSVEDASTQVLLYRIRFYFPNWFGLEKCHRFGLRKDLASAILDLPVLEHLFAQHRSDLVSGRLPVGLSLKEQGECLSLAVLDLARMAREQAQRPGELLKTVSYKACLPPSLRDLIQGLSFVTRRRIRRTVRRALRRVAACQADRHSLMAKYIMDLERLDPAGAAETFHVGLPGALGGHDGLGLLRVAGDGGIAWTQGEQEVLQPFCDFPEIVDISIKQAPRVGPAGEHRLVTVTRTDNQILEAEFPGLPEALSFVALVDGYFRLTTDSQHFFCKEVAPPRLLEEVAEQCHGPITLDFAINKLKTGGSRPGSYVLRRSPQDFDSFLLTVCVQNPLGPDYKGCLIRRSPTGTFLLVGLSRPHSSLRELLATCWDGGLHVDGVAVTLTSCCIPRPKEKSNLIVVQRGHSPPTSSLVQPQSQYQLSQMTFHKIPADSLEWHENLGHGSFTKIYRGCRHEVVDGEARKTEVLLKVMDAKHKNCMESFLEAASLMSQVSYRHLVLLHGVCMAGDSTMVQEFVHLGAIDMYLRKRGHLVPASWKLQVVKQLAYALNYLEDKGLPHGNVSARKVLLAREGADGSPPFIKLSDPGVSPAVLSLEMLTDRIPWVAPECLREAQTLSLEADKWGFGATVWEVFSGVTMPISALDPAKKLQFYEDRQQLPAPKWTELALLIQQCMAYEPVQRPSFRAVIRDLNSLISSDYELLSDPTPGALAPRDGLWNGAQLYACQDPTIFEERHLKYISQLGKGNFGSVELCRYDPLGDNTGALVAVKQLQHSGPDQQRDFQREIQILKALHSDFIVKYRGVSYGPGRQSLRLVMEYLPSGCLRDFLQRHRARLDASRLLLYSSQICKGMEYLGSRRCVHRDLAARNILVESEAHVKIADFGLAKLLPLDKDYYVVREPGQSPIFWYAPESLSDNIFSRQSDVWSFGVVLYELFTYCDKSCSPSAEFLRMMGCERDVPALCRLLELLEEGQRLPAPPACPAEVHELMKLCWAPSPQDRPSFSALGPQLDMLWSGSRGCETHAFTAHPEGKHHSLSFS

[5] = target: kinases (KINOMEscan panel) (Homo sapiens, UniProt Q9UM73); conditions: kinase ALK; NEW KINOMEscan
[6] = target: kinases (KINOMEscan panel) (Homo sapiens, UniProt P00519, M351T); conditions: kinase ABL1(M351T)-phosphorylated; NEW KINOMEscan
[7] = target: kinases (KINOMEscan panel) (Homo sapiens, UniProt P54764); conditions: EPHA4; NEW KINOMEscan
Sequence of kinases (KINOMEscan panel) (Homo sapiens, UniProt P54764) (P54764 20-986): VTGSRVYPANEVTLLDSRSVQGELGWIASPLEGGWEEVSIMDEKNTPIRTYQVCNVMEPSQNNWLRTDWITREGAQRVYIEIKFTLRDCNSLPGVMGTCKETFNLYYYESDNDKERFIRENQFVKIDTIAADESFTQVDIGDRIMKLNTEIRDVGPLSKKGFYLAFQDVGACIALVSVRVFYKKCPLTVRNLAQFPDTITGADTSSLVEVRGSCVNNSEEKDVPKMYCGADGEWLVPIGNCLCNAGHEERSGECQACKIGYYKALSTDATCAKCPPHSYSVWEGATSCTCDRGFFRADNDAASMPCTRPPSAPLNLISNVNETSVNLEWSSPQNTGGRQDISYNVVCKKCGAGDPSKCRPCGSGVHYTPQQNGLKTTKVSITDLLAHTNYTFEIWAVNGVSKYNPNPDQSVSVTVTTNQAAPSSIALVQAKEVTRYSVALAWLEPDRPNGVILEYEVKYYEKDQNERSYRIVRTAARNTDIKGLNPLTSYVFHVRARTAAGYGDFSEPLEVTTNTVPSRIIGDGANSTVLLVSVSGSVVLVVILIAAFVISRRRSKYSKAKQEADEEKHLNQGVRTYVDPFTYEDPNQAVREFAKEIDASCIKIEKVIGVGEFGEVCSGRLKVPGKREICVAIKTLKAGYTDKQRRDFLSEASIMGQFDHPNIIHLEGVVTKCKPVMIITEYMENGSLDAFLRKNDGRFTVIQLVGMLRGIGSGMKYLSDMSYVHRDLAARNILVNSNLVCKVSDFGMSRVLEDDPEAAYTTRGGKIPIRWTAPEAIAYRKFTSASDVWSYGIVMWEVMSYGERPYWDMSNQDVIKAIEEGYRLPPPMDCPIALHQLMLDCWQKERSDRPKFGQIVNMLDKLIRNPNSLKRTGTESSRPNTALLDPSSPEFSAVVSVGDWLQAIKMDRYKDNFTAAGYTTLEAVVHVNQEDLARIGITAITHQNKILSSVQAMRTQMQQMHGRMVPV

[8] = target: T3, kinases (KINOMEscan panel) (Homo sapiens, UniProt Q8NG66); conditions: NEW KINOMEscan
T3 sequence (Q8NG66 1-645): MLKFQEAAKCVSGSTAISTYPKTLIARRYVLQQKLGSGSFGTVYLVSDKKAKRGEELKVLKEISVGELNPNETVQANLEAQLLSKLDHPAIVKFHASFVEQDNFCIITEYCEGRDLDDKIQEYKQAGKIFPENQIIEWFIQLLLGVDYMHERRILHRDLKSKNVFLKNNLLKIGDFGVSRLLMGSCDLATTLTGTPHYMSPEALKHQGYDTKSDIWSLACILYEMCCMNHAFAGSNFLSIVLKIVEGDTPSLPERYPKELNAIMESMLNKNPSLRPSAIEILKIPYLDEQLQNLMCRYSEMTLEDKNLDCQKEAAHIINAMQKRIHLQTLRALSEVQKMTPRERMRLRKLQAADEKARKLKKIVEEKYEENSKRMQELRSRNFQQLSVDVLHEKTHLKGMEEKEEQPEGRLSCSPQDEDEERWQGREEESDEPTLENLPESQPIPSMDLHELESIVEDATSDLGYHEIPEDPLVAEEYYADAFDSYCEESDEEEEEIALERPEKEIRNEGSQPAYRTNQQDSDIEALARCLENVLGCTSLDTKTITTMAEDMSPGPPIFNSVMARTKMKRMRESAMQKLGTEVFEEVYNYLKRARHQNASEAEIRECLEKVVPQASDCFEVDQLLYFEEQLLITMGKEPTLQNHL

[9] = target: kinases (KINOMEscan panel) (Homo sapiens, UniProt P21860); conditions: ERBB3; NEW KINOMEscan
Sequence of kinases (KINOMEscan panel) (Homo sapiens, UniProt P21860) (P21860 20-1342): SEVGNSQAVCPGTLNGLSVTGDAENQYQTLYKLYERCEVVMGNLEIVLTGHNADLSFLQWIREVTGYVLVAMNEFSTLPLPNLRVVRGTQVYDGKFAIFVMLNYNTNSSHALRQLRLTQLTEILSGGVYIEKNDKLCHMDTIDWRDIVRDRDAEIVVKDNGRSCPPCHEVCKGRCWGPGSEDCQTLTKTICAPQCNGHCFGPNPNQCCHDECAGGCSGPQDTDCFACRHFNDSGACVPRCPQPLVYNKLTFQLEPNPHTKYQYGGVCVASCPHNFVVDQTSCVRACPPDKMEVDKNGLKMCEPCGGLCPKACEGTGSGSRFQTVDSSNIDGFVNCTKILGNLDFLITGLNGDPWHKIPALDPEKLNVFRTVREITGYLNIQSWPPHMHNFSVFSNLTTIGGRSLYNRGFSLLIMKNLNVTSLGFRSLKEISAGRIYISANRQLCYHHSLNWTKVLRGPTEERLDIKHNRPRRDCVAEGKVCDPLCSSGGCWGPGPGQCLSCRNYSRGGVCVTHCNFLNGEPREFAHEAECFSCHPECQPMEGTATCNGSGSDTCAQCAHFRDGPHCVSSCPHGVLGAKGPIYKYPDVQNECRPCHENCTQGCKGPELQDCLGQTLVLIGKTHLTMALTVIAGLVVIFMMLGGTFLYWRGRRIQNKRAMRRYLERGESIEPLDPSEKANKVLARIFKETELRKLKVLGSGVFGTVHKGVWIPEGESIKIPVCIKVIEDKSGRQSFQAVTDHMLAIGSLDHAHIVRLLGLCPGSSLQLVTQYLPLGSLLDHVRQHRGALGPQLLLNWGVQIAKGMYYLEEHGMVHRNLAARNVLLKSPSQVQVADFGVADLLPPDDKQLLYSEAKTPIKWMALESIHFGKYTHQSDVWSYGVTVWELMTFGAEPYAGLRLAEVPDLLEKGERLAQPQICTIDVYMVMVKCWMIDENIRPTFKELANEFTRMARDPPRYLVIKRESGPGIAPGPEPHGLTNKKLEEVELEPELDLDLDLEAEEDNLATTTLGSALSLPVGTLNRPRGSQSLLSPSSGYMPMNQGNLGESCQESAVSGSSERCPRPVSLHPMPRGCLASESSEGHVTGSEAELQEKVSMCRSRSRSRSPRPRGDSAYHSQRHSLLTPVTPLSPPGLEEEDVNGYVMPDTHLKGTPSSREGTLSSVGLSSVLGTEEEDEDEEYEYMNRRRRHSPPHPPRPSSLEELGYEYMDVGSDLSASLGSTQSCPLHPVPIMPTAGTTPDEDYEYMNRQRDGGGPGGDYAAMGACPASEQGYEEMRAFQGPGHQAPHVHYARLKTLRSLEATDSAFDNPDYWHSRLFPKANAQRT

Sequence of kinases (KINOMEscan panel) (Homo sapiens, UniProt Q9H4B4) (Q9H4B4 whole entry): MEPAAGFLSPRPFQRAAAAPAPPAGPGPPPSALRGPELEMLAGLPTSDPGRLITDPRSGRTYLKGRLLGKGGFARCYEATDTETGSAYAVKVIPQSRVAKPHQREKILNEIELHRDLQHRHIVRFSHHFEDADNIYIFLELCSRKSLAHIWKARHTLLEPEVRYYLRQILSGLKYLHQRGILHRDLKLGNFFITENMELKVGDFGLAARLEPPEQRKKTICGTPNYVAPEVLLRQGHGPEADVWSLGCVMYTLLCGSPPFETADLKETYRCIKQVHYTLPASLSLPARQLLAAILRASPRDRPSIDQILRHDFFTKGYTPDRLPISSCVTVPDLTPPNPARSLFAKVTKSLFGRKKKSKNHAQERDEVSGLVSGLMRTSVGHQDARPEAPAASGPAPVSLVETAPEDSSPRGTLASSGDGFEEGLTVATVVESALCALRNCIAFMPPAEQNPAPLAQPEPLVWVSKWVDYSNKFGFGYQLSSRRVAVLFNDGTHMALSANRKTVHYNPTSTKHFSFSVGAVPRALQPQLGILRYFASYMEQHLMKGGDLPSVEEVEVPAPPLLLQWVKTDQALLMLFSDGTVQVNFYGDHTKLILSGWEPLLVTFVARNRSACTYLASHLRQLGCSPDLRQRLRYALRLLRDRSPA

| Structure (SMILES) | KINOMEscan PLK3 [1] | KINOMEscan PDPK1 [2] | KINOMEscan AAK1 [3] | KINOMEscan JAK3(JH1domain-catalytic) [4] | KINOMEscan ALK [5] | KINOMEscan ABL1(M351T)-phosphorylated [6] | KINOMEscan EPHA4 [7] | KINOMEscan NEK11 [8] | KINOMEscan ERBB3 [9] |
| --- | --- | --- | --- | --- | --- | --- | --- | --- | --- |
| Cc1cccc(-c2nc(Nc3ccc4nn(C)cc4c3)c3ccccc3n2)n1 [NK167] | 16 | 32 | 1 | 0 | 22 | 0 | 0 | 0 | 0 |
| Cc1cccc(-c2nc(N(C)c3ccc4ncsc4c3)c3ccccc3n2)n1 [NK-161] | 13 | 29 | 5 | 0 | 9 | 0 | 5 | 2 | 11 |
